According to US11819492B2, “Natural product derivatives for inhibiting cellular necroptosis, ferroptosis and oxytosis” (Institut National de la Sante et de la Recherche Medicale …, priority 2016, dated 2023):

How the values were obtained:
[1] = test system: Porcine LLC-PK1 cells (kidney proximal tubule cell line); assay: Cold-induced cell death (cold storage), MTS viability assay; assay type: cell-based; conditions: 0.01-50.00 μM, 24 hours at 4° C., FIGS. 16a, 16b
Protocol: At it was previously shown (Ahlenstiel et al. Transplantation […], 81(2), 231-239), cold storage induces a cell-death process. Porcine LLC-PK1 cells (kidney proximal tubule cell line) were stored at approximately 4° C. during 24 hours with or without the tested molecules. […] Cells were then incubated at 37° C., 5% CO2 before performing MTS viability assay. Cell viability was monitored using CellTiter 96® AQueous Non-Radioactive Cell Proliferation Assay (Promega, Fitchburg, WI, USA), based on the water-soluble tetrazolium compound MTS (3-[4,5-dimethylthiazol-2-yl]-5-[3-carboxymethoxy-phenyl]-2-[4-sulfophenyl]-2H-tetrazolium, inner salt) according to the manufacturers instructions.

[2] = test system: rat embryonic myoblastic H9C2 cells; assay: H2O2-induced necrosis, LDH release assay; assay type: cell-based; conditions: 10 μM, 2 hours pretreatment, 800 μM H2O2 for 24 hours, FIG. 17
Protocol: The rat embryonic myoblastic H9C2 cells were cultured at 10,000 cells/well in 96-well-plates for 24 hours at 37° C./5% CO2. […] LB corresponds to cells treated with a lysis buffer (100% of cell death). Cell cytotoxicity was determined by a colorimetric assay quantitatively measuring lactate dehydrogenase (LDH) released […].

[3] = test system: Human retinal pigment epithelial cell line, ARPE-19; conditions: 200 μM, Hanus et al. 2016; cited from earlier work

Structure (SMILES) | protection from death induced by cold storage [1] | protection from death induced by H2O2 (LDH release) [2] | inhibition of NaIO3-induced necroptosis in retinal pigment epithelial cell line [3]
CN1C(=O)NC(Cc2c[nH]c3c(Cl)cccc23)C1=O (stereo not drawn) [Nec-1s, Necrostatin-1s, reference compound] | inactive | less effective | 
CN1C(=O)C(Cc2c[nH]c3ccccc23)NC1=S (stereo not drawn) [necrostatin-1] |  |  | inhibited
